The source of these data is US12054497B2, “Substituted heterocyclic fused cyclic compound, preparation method therefor and pharmaceutical use thereof” (GENFLEET THERAPEUTICS (SHANGHAI) INC., priority 2019, dated 2024).

The nature of the data set: Pharmacokinetic evaluation on mice, intravenous administration (Test Example 6). It counts as in vivo. The conditions noted are these: mouse, plasma, male CD-1 mice, IV 2 mg/kg; for clearance: read-out: Cl (clearance rate) (converted); for half-life: read-out: T1/2 (half-life) (converted); for Vd: read-out: Vd (volume of distribution). The procedure: Experimental objective: male CD-1 mice were chosen as tested animals, and the LC-MS-MS method was employed to measure the concentrations of a tested compound in blood plasma of a mouse intravenously and intragastrically administrated with the tested compound at different times. The pharmacokinetic behaviors of tested compounds in mice were studied, and the pharmacokinetic characteristics thereof were evaluated.
Experimental scheme: experimental animals: 18 healthy adult male CD-1 mice (6 to 8 weeks old, and body weight about 30 g) were divided into 6 groups according to the principle of similar body weights: 3 mice in each of IV groups (3 groups), and 3 mice in each of PO groups (3 groups). The animals were purchased from Shanghai Jihui Laboratory Animal Care Co., Ltd.
Formulation: IV group: taking 10 mL of sample solution for example, 4 mg of sample was weighed, orderly added with 0.5 mL of DMSO and […], then added with […] of HP-p-CD, finally added with water to a constant volume of 10 mL, and stirred and subjected to ultrasonic irradiation, thereby obtaining a 0.4 mg/mL clear solution. PO group: an appropriate amount of sample was weighed, orderly added with appropriate amounts of Labrasol and water in a volume ratio of 10:40, and stirred and subjected to ultrasonic irradiation, thereby obtaining a 1.5 mg/mL uniform solution.
Administration: after being deprived of food for one night, the IV groups were intravenously administrated with the formulated solutions, respectively, with an injection volume of 5 mL/kg and a dosage of 2 mg/kg. The PO groups were intragastrically administrated with the formulated solutions, respectively, with an injection volume of […] and a dosage of 15 mg/kg.
Experimental operations: after the intravenous injection groups and the intragastric administration groups of the male CD-1 mice were administrated with the tested compounds, 110 ul of blood was sampled at the following time points: 0.0833, 0.25, 0.5, 1, 2, 4, 6, 8, and 24 hours. The sampled blood was placed into an anticoagulant tube which was added with K2EDTA in advance and preserved in dry ice. The tube was centrifuged for 15 minutes to separate blood plasma, and the separated blood plasma was preserved at −70° C. The animals were allowed to be fed after 4 hours of administration. The LC-MS-MS method was employed to measure the concentration of the tested compounds in the blood plasma after the intravenous and intragastric administration to the mice. The linear range of the method was 1-3000 ng/ml. The blood plasma samples were analyzed after protein precipitation with ACN.

As to `C=CC(=O)N1CCN2c3c(c(=O)n(-c4c(C(C)C)ncnc4C(C)C)c4nc(-c5c(O)cccc5F)c(Cl)cc34)N(C)C(=O)[C@H]2C1` [Compound Z48], the clearance was 25.5 mL/min/kg, the half-life was 1.02 h and the Vd worked out at 1.66 L/kg.

Consider `C=CC(=O)N1CCN2c3c(c(=O)n(-c4c(C)ccnc4C(C)C)c4nc(-c5c(O)cccc5F)c(F)cc34)N(C)C(=O)[C@H]2C1` (single isomer, unassigned) [Compound Z9-2], for which the clearance was 2.33 mL/min/kg, the half-life is 1.74 h and the Vd is 0.326 L/kg.

For `C=CC(=O)N1CCN2c3c(c(=O)n(-c4c(C)ccnc4C(C)C)c4nc(-c5c(O)cccc5F)c(Cl)cc34)N(C)C(=O)[C@H]2C1` (single isomer, unassigned) [Compound Z25-2], the clearance was 8.32 mL/min/kg, the half-life was 1 h and the Vd amounted to 0.661 L/kg.

Regarding `C=CC(=O)N1C[C@@H]2C(=O)N(C)c3c(c4cc(Cl)c(-c5c(O)cccc5F)nc4n(-c4c(C)ccnc4C(C)C)c3=O)N2C[C@H]1C` (single isomer, unassigned) [Compound Z27-2], the clearance was 9.83 mL/min/kg, the half-life is 1.08 h and the Vd came to 0.777 L/kg.

Take `C=CC(=O)N1C[C@@H]2C(=O)N(C)c3c(c4cc(F)c(-c5c(O)cccc5F)nc4n(-c4c(C)ccnc4C(C)C)c3=O)N2C[C@H]1C` (single isomer, unassigned) [Compound Z10-2]: the clearance was 13.5 mL/min/kg, the half-life was 0.941 h and the Vd was 1.06 L/kg.
